Results taken from US8420331B2, “Type IV collagen-like immunoreactive peptide” (priority 2006, dated 2013).

Columns and labels:
[1] = tested on: antibody (IgG) in urine of nephritis patients; assay: Screening of antigenic site on alpha 5 chain NC1: ELISA with synthetic peptides as coating antigen; type: binding, human
Method: A preliminary test was carried out, using the ELISA method, in which NC1 as the antigen for coating was replaced with synthetic peptides. The measurement conditions were: antigen concentration: 10 μg/mL (10 mM PBS), 100 μL/well; blocking agent: Block Ace (manufactured by Dainippon Pharmaceutical Co., Ltd.) diluted to 25%, 250 μL/well; urine: human 20- to 100-fold dilution; second antibody (enzyme-labeled anti-human IgG antibody): ×800; and substrate solution: TMB (+) (manufactured by DAKO Corp). The specimen was diluted to 20- to 100-fold, unlike the original fourfold dilution of NC1 as the antigen. […] Accordingly, a main test was carried out using NC1 of the alpha 5 chain. Note that 301 contained the amino acid sequence about 5 to 18 from the N-terminus on the alpha 3 chain corresponding to Goodpasture syndrome specified by computer software. Furthermore, it was possible to check alpha chains other than the alpha 5 chain, such as 301. […] Therefore, it was possible to use both antigens as nephritis detection reagents.
A test was carried out using the ELISA method, in which NC1 as the antigen for coating was replaced with synthetic peptides, under the same conditions as those described above.
The peptides of the alpha 5 chain were prepared as described below. Fifteen synthetic peptides were prepared from the whole region of the alpha 5 chain NC1, in which a first unit of 20 amino acid residues was selected from the N-terminus, and subsequent units, each containing 20 amino acid residues, were selected with 5 amino acid residues overlapping each other (hereinafter referred to as yp01 to yp15 (H4NA5-1 to 5-15 in FIG. 6), yp15 containing more than 20 amino acid residues). […] Thus, the five peptides were antigenic sites common to the specimen A, the specimen B, and IgA nephropathy which were derived from different diseases. As described above, bovine glomerulus-derived NC1 and triple helix have substantially the same reactivity with nephritis urine specimens, and both are considered to be common antigens to nephritis. Thus, the triple helix (7S and/or the central helical domain) of the alpha 5 chain and peptides thereof can be considered as immunoreactive peptide candidates. The whole alpha 5 chain may be used as an antigen. However, in such a case, a time-consuming process is required.

rabbits (female) [2] = assay: Nephritis model using immunoreactive peptide as inducer, rabbits, urinary protein; type: in vivo, rabbit; settings: peptide 0.3 mg/mL with FCA intradermally once in two weeks, four times
Method: The selected peptides can be used as an inducer of nephritis independently and/or in combination with each other. Although yp08 (SEQ ID NO: 8) and yp12 (SEQ ID NO: 6) were used as peptides and rabbits and guinea pigs were used as animals, the peptides, animals, and administration methods are not limited thereto.
(§1) Peptides 0.3 mg/mL (0.15 mg only for initial administration) together with the same amount of FCA were intradermally administered to rabbits (female) once in two weeks, four times in total.

rabbits (female) [3] = assay: ELISA antibody level in serum of peptide-immunised rabbits (peptide-coated microplate); type: in vivo; settings: rabbit serum
Method: as §1
Furthermore, in the ELISA method in which the microplate was coated with the peptide yp12 (SEQ ID NO: 6) (10 μg/mL), in 7 weeks after the initial administration, at a dilution of 32,000 fold, the antibody level in serum reached 3.00, which is in the vicinity of the upper limit of measurement of the absorptiometer.

guinea pigs (female) = assay: ELISA antibody level in serum of peptide-immunised guinea pigs (yp12-coated microplate); type: in vivo; settings: guinea pig serum, dilution 8,000 fold, 7 weeks after initial administration
Method: Peptides 0.1 mg/mL together with the same amount of FCA were intradermally administered to guinea pigs (female) once in two weeks, four times in total.
Furthermore, in the ELISA method in which the microplate was coated with the peptide yp12 (SEQ ID NO: 6) (10 μg/mL), in 7 weeks after the initial administration, at a dilution of 8,000 fold, the antibody level in guinea pig serum reached 3.00, which is in the vicinity of the upper limit of measurement of the absorptiometer. Furthermore, intra-abdominal administration to rats or mice of these anti-immunoreactive peptide antibodies (antiserum) enabled production of models of nephritis which was weak, close to that of human, and slowly progressive, unlike the administration of conventional anti-NC1 antibodies (antiserum).

[4] = specimen A (chronic nephritis: No. 38)
[5] = specimen B (diabetic nephritis: No. 42)

Substance | reaction with urine specimen ([1]; IgA nephropathy) | reaction with urine specimen [1, 4] | reaction with urine specimen [1, 5] | urinary protein (rabbits (female) [2]) | ELISA antibody level in serum (A450 nm) (rabbits (female) [3]; dilution ×8,000) | ELISA antibody level in serum (A450 nm) (rabbits (female) [3]; dilution 32,000 fold, 7 weeks after initial administration) | ELISA antibody level in serum (A450 nm) (guinea pigs (female))
GRGTC NYYAN SYSFW LATVD (GRGTCNYYANSYSFWLATVD; peptide with homology to Type IV collagen) [yp13, synthetic 20-residue peptide from human type IV collagen alpha 5 chain NC1] | strongly reacted | strongly reacted | strongly reacted | – | – | – | –
GWDSL WIGYS FMMHT SAGAE (GWDSLWIGYSFMMHTSAGAE; peptide with homology to Type IV collagen) [yp10, synthetic 20-residue peptide from human type IV collagen alpha 5 chain NC1] | strongly reacted | strongly reacted | strongly reacted | – | – | – | –
PFISR CAVCE APAVV IAVHS (PFISRCAVCEAPAVVIAVHS; peptide with homology to Type IV collagen) [yp08, synthetic 20-residue peptide from human type IV collagen alpha 5 chain NC1] | strongly reacted | strongly reacted | strongly reacted | +2 | 3.00 | – | –
SCLEE FRSAP FIECH GRGTC (SCLEEFRSAPFIECHGRGTC; peptide with homology to Type IV collagen) [yp12, synthetic 20-residue peptide from human type IV collagen alpha 5 chain NC1] | strongly reacted | strongly reacted | strongly reacted | +2 | – | 3.00 | 3.00
STMPF MFCNI NNVCN FASRN (STMPFMFCNINNVCNFASRN; peptide with homology to Type IV collagen) [yp05, synthetic 20-residue peptide from human type IV collagen alpha 5 chain NC1] | strongly reacted | strongly reacted | strongly reacted | – | – | – | –
